Laboratory results published in paper PMC6193035, “Novel small molecules affecting cell membrane as potential therapeutics for avian pathogenic Escherichia coli” (Scientific Reports, 2018).
Marks after values point to notes of the source that are not given here.

What was measured:
[1] = system: biofilm embedded APEC O78; assay: MBEC High-throughput (HTP) assay; format: cell-based, Escherichia coli; details: 18 h challenge in M63 media
Experimental: The effect of cidal SMs against biofilm embedded APEC was determined using MBEC High-throughput (HTP) assay (Innovotech Inc., AB, Canada)[22]. Briefly, 150 μL of 0.05 OD600 adjusted APEC O78 culture was aliquoted into each well of the MBEC device containing polystyrene pegs and incubated at 37 °C for 36 h in LB media under stationary condition. […] The plate was incubated in the dark for 18 h at 37 °C with rotation at 110 rpm. The DMSO (1%) and […] media were used as positive and negative controls, respectively. Following incubation, MIC of SMs in challenged plate was recorded. The SMs exposed pegs were then transferred to a new 96-well plate containing PBS and sonicated for 30 mins (Aquasonic ultrasonic cleaner, VWR) to disrupt the biofilm. The sonicated suspensions were ten-fold serially diluted and plated on LB agar plate. Biofilm embedded APEC bacteria were enumerated and minimum biofilm eradication concentration (MBEC) of SMs were determined as described previously. Two independent experiments were conducted.

[2] = system: intracellular APEC O78 in HD11 cells; assay: Intracellular survival assay; format: cell-based, Escherichia coli; details: for minimal effective concentration: Escherichia coli, O78, HD11, 6 h treatment, read-out: SMs intracellular APEC clearance concentration; for intracellular APEC clearance concentration as multiple of MIC (superscript): O78, HD11; for concentration at which the SM significantly (P < 0.01) reduced intracellular APEC (superscript of t-statistic): O78, HD11, 6 h
Experimental: (§1) Intracellular survival assay was conducted as described previously[28],[29] to determine the effect of cidal SMs on APEC survival in phagocytic (HD11, THP-1) and non-phagocytic (Caco-2) cells. Briefly, mid-logarithmic phase grown APEC O78, O1, and O2 were washed and adjusted to 1 × 10^7 CFU/mL in cell culture incomplete media (no FBS and antibiotics). One-hundred microlitres adjusted APEC suspension was added at multiplicity of infection (MOI) 10 to wells of 96-well cell culture plate containing cultured macrophage (HD11, THP-1) and epithelial cells (Caco-2) and incubated for 1 h and 3 h, respectively. […] The cells were then lysed with 100 µL of 0.1% Triton X-100 for 5 mins, serially diluted, and plated on LB agar plate to enumerate viable bacteria. The intracellular bacteria in SMs treated wells were compared with DMSO (1%) treated wells. Two independent experiments in duplicate wells for each concentration of SMs were conducted.

[3] = system: intracellular APEC O1 in HD11 cells; assay: Intracellular survival assay; format: cell-based, Escherichia coli; details: for minimal effective concentration: Escherichia coli, O1, HD11, 6 h treatment, read-out: SMs intracellular APEC clearance concentration; for concentration at which the SM significantly (P < 0.01) reduced intracellular APEC (superscript of t-statistic): O1, HD11, 6 h
Experimental: as §1

[4] = system: intracellular APEC O78 in Caco-2 cells; assay: Intracellular survival assay; format: cell-based, Escherichia coli; details: for minimal effective concentration: Escherichia coli, O78, Caco-2, 6 h treatment, read-out: SMs intracellular APEC clearance concentration; for intracellular APEC clearance concentration as multiple of MIC (superscript): O78, Caco-2; for concentration at which the SM significantly (P < 0.01) reduced intracellular APEC (superscript of t-statistic): O78, Caco-2, 6 h
Experimental: as §1

[5] = system: intracellular APEC O1 in Caco-2 cells; assay: Intracellular survival assay; format: cell-based, Escherichia coli; details: for minimal effective concentration: Escherichia coli, O1, Caco-2, 6 h treatment, read-out: SMs intracellular APEC clearance concentration; for intracellular APEC clearance concentration as multiple of MIC (superscript): O1, Caco-2; for concentration at which the SM significantly (P < 0.01) reduced intracellular APEC (superscript of t-statistic): O1, Caco-2, 6 h
Experimental: as §1

[6] = system: intracellular APEC O2 in HD11 cells; assay: Intracellular survival assay; format: cell-based, Escherichia coli; details: for minimal effective concentration: Escherichia coli, O2, HD11, 6 h treatment, read-out: SMs intracellular APEC clearance concentration; for intracellular APEC clearance concentration as multiple of MIC (superscript): O2, HD11; for concentration at which the SM significantly (P < 0.01) reduced intracellular APEC (superscript of t-statistic): O2, HD11, 6 h
Experimental: as §1

[7] = system: intracellular APEC O78 in THP-1 cells; assay: Intracellular survival assay; format: cell-based, Escherichia coli; details: for minimal effective concentration: Escherichia coli, O78, THP-1, 6 h treatment, read-out: SMs intracellular APEC clearance concentration; for intracellular APEC clearance concentration as multiple of MIC (superscript): O78, THP-1; for concentration at which the SM significantly (P < 0.01) reduced intracellular APEC (superscript of t-statistic): O78, THP-1, 6 h
Experimental: as §1

[8] = system: intracellular APEC O2 in THP-1 cells; assay: Intracellular survival assay; format: cell-based, Escherichia coli; details: for minimal effective concentration: Escherichia coli, O2, THP-1, 6 h treatment, read-out: SMs intracellular APEC clearance concentration; for concentration at which the SM significantly (P < 0.01) reduced intracellular APEC (superscript of t-statistic): O2, THP-1, 6 h
Experimental: as §1

[9] = system: intracellular APEC O2 in Caco-2 cells; assay: Intracellular survival assay; format: cell-based, Escherichia coli; details: for minimal effective concentration: Escherichia coli, O2, Caco-2, 6 h treatment, read-out: SMs intracellular APEC clearance concentration; for intracellular APEC clearance concentration as multiple of MIC (superscript): O2, Caco-2; for concentration at which the SM significantly (P < 0.01) reduced intracellular APEC (superscript of t-statistic): O2, Caco-2, 6 h
Experimental: as §1

[10] = system: intracellular APEC O1 in THP-1 cells; assay: Intracellular survival assay; format: cell-based, Escherichia coli; details: for minimal effective concentration: Escherichia coli, O1, THP-1, 6 h treatment, read-out: SMs intracellular APEC clearance concentration; for concentration at which the SM significantly (P < 0.01) reduced intracellular APEC (superscript of t-statistic): O1, THP-1, 6 h
Experimental: as §1

APEC O2 = assay: MIC and MBC determination in M63 media; format: cell-based; details: Escherichia coli
APEC O78-53 = assay: MIC and MBC determination in M63 media; format: cell-based; details: Escherichia coli; APEC O78-53, M63 media
Experimental: (§2) One microlitre SM of each concentration was transferred to each well of a 96-well plate containing 100 µL of the 0.05 OD600 adjusted APEC O78 culture in M63 media. Growth was monitored in Sunrise - Absorbance microplate reader as described above. MIC was indicated by lowest concentration of SM with non-elevated OD600 measurement. MBC was determined by absence of APEC growth on LB agar plate following subculture. […] Two independent experiments were conducted.

APEC O78 [11] = assay: MIC and MBC determination in M63 media; format: cell-based, Escherichia coli; details: Escherichia coli; for MBC: subculture on LB agar
Experimental: as §2

APEC O115 = assay: MIC and MBC determination in M63 media; format: cell-based; details: Escherichia coli
[12] = system: intracellular APEC O78, O2, and O1 in infected Caco-2, HD11, and THP1 cells; assay: Intracellular survival assay, statements over all serotypes and cells; format: cell-based, Escherichia coli; details: for minimal effective concentration: Escherichia coli, 6 h, O78, O2 and O1, Caco-2, HD11, THP-1, read-out: concentration clearing intracellular APEC; for ranking in clearing intracellular APEC: all tested serotypes and cells
Experimental: as §1

APEC O78 [13] = assay: Loss of 260/280 nm absorbing materials assay; format: cell-based, Escherichia coli; details: 2X MBC, 1 h; for Absorbance 280 nm of treated supernatant: DMSO 2.58; for Absorbance 280 nm of treated supernatant / Absorbance 260 nm of treated supernatant: superscript a P < 0.05 vs DMSO; for Absorbance 260 nm of treated supernatant: DMSO 3.77
Experimental: Membrane permeability assays (crystal violet (CV) uptake and loss of 260/280 nm absorbing materials) were conducted as described previously. […] CV uptake was measured using the formula: (OD DMSO − OD SM/OD DMSO × 100). Two independent experiments in duplicates were conducted.

SMILES	MBEC as multiple of MIC (superscript) [1]	minimal effective concentration [2] [µM]	intracellular APEC clearance concentration as multiple of MIC (superscript) [2]	concentration at which the SM significantly (P < 0.01) reduced intracellular APEC (superscript of t-statistic) [2]	minimal effective concentration [3] [µM]	concentration at which the SM significantly (P < 0.01) reduced intracellular APEC (superscript of t-statistic) [3]	minimal effective concentration [4] [µM]	intracellular APEC clearance concentration as multiple of MIC (superscript) [4]	concentration at which the SM significantly (P < 0.01) reduced intracellular APEC (superscript of t-statistic) [4]	minimal effective concentration [5] [µM]	intracellular APEC clearance concentration as multiple of MIC (superscript) [5]	concentration at which the SM significantly (P < 0.01) reduced intracellular APEC (superscript of t-statistic) [5]	minimal effective concentration [6] [µM]	intracellular APEC clearance concentration as multiple of MIC (superscript) [6]	concentration at which the SM significantly (P < 0.01) reduced intracellular APEC (superscript of t-statistic) [6]	minimal effective concentration [7] [µM]	intracellular APEC clearance concentration as multiple of MIC (superscript) [7]	concentration at which the SM significantly (P < 0.01) reduced intracellular APEC (superscript of t-statistic) [7]	minimal effective concentration [8] [µM]	concentration at which the SM significantly (P < 0.01) reduced intracellular APEC (superscript of t-statistic) [8]	also measured
CCN1/C(=C/c2ccc3ccccc3[n+]2CC)C=Cc2ccccc21 [SM9]	b (1X MIC)	100	c (4X MIC)	c (2XMIC)	100	b (1X MIC)	50	b (2X MIC)	b (1X MIC)	100	c (4X MIC)	c (2XMIC)	100	c (4X MIC)	c (2XMIC)	50	b (2X MIC)	b (1X MIC)	50	b (1X MIC)	minimal effective concentration [9]: 100 µM; intracellular APEC clearance concentration as multiple of MIC (superscript) [9]: c (4X MIC); concentration at which the SM significantly (P < 0.01) reduced intracellular APEC (superscript of t-statistic) [9]: c (2XMIC); minimal effective concentration [10]: 50 µM; intracellular APEC clearance concentration as multiple of MIC (superscript) ([10]; O1, THP-1): b (2X MIC); concentration at which the SM significantly (P < 0.01) reduced intracellular APEC (superscript of t-statistic) [10]: b (1X MIC); MBC (APEC O2): 50 µM; MIC (APEC O2): 25 µM; MBC (APEC O78-53): 25 µM; MIC (APEC O78-53): 25 µM; MIC (APEC O78 [11]): 25 µM; MBC (APEC O78 [11]): 50 µM; MBC (APEC O115): 50 µM; MIC (APEC O115): 25 µM; minimal effective concentration [12]: ≤ 100 µM; ranking in clearing intracellular APEC [12]: most effective SMs in clearing intracellular APEC serotypes in all tested cells; 260 nm absorbing materials in supernatant compared with DMSO (APEC O78 [13]): significantly (P < 0.05, Student’s t-test) increased; 280 nm absorbing materials in supernatant compared with DMSO (APEC O78 [13]): significantly (P < 0.05, Student’s t-test) increased; Absorbance 280 nm of treated supernatant (APEC O78 [13]): 2.78^a; Absorbance 260 nm of treated supernatant (APEC O78 [13]): 3.99^a
CC1CCC(C(C)C)C(OC(=O)Cn2c[n+](CC(=O)OC3CC(C)CCC3C(C)C)c3ccccc32)C1 (stereo not shown) [SM4]	a (0.5X MIC)	50	b (2X MIC)	a (0.5X MIC)	50	b (1X MIC)	50	b (2X MIC)	a (0.5X MIC)	100	c (4X MIC)	c (2XMIC)	50	b (2X MIC)	a (0.5X MIC)	50	b (2X MIC)	a (0.5X MIC)	100	b (1X MIC)	minimal effective concentration [9]: 100 µM; intracellular APEC clearance concentration as multiple of MIC (superscript) [9]: c (4X MIC); concentration at which the SM significantly (P < 0.01) reduced intracellular APEC (superscript of t-statistic) [9]: c (2XMIC); minimal effective concentration [10]: > 100 µM; concentration at which the SM significantly (P < 0.01) reduced intracellular APEC (superscript of t-statistic) [10]: b (1X MIC); MBC (APEC O2): 50 µM; MIC (APEC O2): 25 µM; MBC (APEC O78-53): 50 µM; MIC (APEC O78-53): 25 µM; MIC (APEC O78 [11]): 25 µM; MBC (APEC O78 [11]): 50 µM; MBC (APEC O115): 25 µM; MIC (APEC O115): 25 µM; minimal effective concentration [12]: ≤ 100 µM; ranking in clearing intracellular APEC [12]: most effective SMs in clearing intracellular APEC serotypes in all tested cells; 260 nm absorbing materials in supernatant compared with DMSO (APEC O78 [13]): significantly (P < 0.05, Student’s t-test) increased; 280 nm absorbing materials in supernatant compared with DMSO (APEC O78 [13]): significantly (P < 0.05, Student’s t-test) increased; Absorbance 280 nm of treated supernatant (APEC O78 [13]): 2.69^a; Absorbance 260 nm of treated supernatant (APEC O78 [13]): 3.91^a
